Source: ChEMBL document CHEMBL1145378 (J Med Chem, 2007)

Legend:
[1] = biological target: Voltage-gated inwardly rectifying potassium channel KCNH2 (Homo sapiens, UniProt Q12809)
[2] = Permeability from basolateral to apical side of the Caco-2 cell membrane; assay type: ADME, cell-based; details: human
[3] = Permeability from apical to basolateral side of the Caco-2 cell membrane; assay type: ADME, cell-based; details: human
[4] = biological target: hERG (KCNH2) (Homo sapiens, UniProt Q12809); assay: in vitro; details: HEK293 cells that express hERG
Sequence of hERG (KCNH2) (Q12809 whole entry): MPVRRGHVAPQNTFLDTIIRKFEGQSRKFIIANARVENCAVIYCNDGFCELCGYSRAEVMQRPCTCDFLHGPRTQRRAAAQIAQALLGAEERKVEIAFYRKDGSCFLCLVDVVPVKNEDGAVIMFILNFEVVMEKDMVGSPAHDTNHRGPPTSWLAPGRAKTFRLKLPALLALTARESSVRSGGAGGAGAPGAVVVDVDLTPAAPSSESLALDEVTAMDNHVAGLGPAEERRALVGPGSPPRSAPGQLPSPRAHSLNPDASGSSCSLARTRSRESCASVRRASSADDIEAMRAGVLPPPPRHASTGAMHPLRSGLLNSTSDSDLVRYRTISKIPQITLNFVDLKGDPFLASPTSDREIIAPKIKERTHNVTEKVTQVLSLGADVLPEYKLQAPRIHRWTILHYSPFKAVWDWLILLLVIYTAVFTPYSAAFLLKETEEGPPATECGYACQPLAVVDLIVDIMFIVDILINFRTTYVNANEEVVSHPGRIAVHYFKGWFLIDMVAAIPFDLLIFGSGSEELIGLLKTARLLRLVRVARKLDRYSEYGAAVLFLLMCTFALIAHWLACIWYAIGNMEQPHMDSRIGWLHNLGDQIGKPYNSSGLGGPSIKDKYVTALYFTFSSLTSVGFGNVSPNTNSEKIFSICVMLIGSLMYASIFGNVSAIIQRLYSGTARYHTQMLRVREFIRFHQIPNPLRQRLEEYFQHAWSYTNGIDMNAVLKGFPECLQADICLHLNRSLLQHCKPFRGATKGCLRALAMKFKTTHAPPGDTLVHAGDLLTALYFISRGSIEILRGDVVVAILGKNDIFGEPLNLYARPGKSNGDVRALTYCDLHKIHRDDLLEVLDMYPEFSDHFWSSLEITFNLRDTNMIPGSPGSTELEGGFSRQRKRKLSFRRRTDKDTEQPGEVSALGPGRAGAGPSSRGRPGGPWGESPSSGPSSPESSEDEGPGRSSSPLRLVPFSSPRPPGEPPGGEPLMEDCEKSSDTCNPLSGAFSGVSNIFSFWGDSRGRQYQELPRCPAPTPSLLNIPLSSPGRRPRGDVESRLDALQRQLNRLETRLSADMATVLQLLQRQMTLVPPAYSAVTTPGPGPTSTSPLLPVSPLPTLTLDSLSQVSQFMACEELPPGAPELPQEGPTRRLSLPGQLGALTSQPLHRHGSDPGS

Sequence of Voltage-gated inwardly rectifying potassium channel KCNH2 (Q12809 whole entry): as above

Structure (SMILES)	Ki [1] [nM]	further results
CN(C)c1ccc2c(c1)Oc1cc(N(C)C)ccc1C21OC(=O)c2cc(C(=O)N(CCOc3ccc(NS(C)(=O)=O)cc3)CCc3ccc(NS(C)(=O)=O)cc3)ccc21	> 1000	–
CCN1CCCc2cc3c(cc21)OC1=CC2=[N+](CCCC(=O)N(CCOc4ccc(NS(C)(=O)=O)cc4)CCc4ccc(NS(C)(=O)=O)cc4)CCCC2=CC1N3 (configuration not stated)	3.6	–
CC1(C)C2=C3C=C4C5=[N+](CCC4OC3CCN2c2ccc(CCC(=O)NCCCCCCN(CCOc3ccc(NS(C)(=O)=O)cc3)CCc3ccc(NS(C)(=O)=O)cc3)cc21)c1ccc(S(=O)(=O)[O-])cc1C5(C)C (configuration not stated)	19	–
CN(CCOc1ccc(NS(C)(=O)=O)cc1)CCc1ccc(NS(C)(=O)=O)cc1 [DOFETILIDE]	–	Papp B→A [2]: 14.3 ×10⁻⁶ cm/s; Papp A→B [3]: 15.7 ×10⁻⁶ cm/s; inhibition at 0.025 µM [4]: 80%
CC1(C)C2=C3C=C4C5=[N+](CCC4OC3CCN2c2ccc(CC(=O)NCCCN(CCOc3ccc(NS(C)(=O)=O)cc3)CCc3ccc(NS(C)(=O)=O)cc3)cc21)c1ccc(S(=O)(=O)[O-])cc1C5(C)C (configuration not stated)	160	–
CC1(C)C2=C3C=C4C5=[N+](CCC4OC3CCN2c2ccc(CCCCCC(=O)NCCCCCCN(CCOc3ccc(NS(C)(=O)=O)cc3)CCc3ccc(NS(C)(=O)=O)cc3)cc21)c1ccc(S(=O)(=O)[O-])cc1C5(C)C (configuration not stated)	10	–
CS(=O)(=O)Nc1ccc(CCN(CCOc2ccc(NS(C)(=O)=O)cc2)C(=O)c2ccc3c(c2)C(=O)OC32c3ccc(O)cc3Oc3cc(O)ccc32)cc1	980	–
CC1(C)C2=C3C=C4C5=[N+](CCC4OC3CCN2c2ccc(CC(=O)NCCN(CCOc3ccc(NS(C)(=O)=O)cc3)CCc3ccc(NS(C)(=O)=O)cc3)cc21)c1ccc(S(=O)(=O)[O-])cc1C5(C)C (configuration not stated)	7300	–
CCNC(=O)Cc1ccc2c(c1)C(C)(C)C1C3C=C4C5=[N+](CCC4OC3CCN21)c1ccc(S(=O)(=O)[O-])cc1C5(C)C (configuration not stated)	> 1000	–
CC1(C)C2=C3C=C4C5=[N+](CCC4OC3CCN2c2ccc(CC(=O)NCCCCCN(CCOc3ccc(NS(C)(=O)=O)cc3)CCc3ccc(NS(C)(=O)=O)cc3)cc21)c1ccc(S(=O)(=O)[O-])cc1C5(C)C (configuration not stated)	13	–
CS(=O)(=O)Nc1ccc(CCN(CCOc2ccc(NS(C)(=O)=O)cc2)c2ccc([N+](=O)[O-])c3nonc23)cc1	–	Papp B→A [2]: 18 ×10⁻⁶ cm/s; Papp A→B [3]: 3.7 ×10⁻⁶ cm/s
CC1(C)C2=C3C=C4C5=[N+](CCC4OC3CCN2c2ccc(CC(=O)NCCCCN(CCOc3ccc(NS(C)(=O)=O)cc3)CCc3ccc(NS(C)(=O)=O)cc3)cc21)c1ccc(S(=O)(=O)[O-])cc1C5(C)C (configuration not stated)	18	–
CN(C)c1ccc2c(c1)Oc1cc(N(C)C)ccc1C21OC(=O)c2cc(C(=O)NCCCCCCN(CCOc3ccc(NS(C)(=O)=O)cc3)CCc3ccc(NS(C)(=O)=O)cc3)ccc21	89	–
CS(=O)(=O)Nc1ccc(CCN(CCCCCCNC(=O)c2ccc3c(c2)C(=O)OC32c3ccc(O)cc3Oc3cc(O)ccc32)CCOc2ccc(NS(C)(=O)=O)cc2)cc1	15	–
